{
  "source": "paper PMC10404663",
  "about": "(The Journal of Biological Chemistry, 2023)",
  "molecules": {"B1": {"name": "RocR, transcription activator of the roc genes (6xHis-RocR) (natural protein, Bacillus subtilis, UniProt P38022 1-461, looked up)", "chain": "MVKDSEFLTLVFQSILDEIDVGLHVVDEHGNTIVYNNKMMQIEDMEKHDVLNKNLMDVFMFSKQQDSTLVQALQEGKTIKNVKQSYFNNKGQEITTINHTYPIVQDGKIRGAVEIAKDVTKLERLIRENMNKKGSTTYTFDSILGTSPAIQDVIENAKRATRTSSSVLLAGETGTGKELFAQSIHNGSDRSGGPFISQNCAALPDSLVESILFGTKKGAFTGAVDQPGLFEQAHGGTLLLDEINSLNLSLQAKLLRALQERKIRRIGSTKDTPIDVRIIATMNEDPIDAIAGERMRKDLYYRLSVVTLIIPPLRERKEDILLLASEFIQKNNHLFQMNVEHISDDVKQFFLSYDWPGNIRELEHMIEGAMNFMTDEQTITASHLPYQYRMKIKPADIPEPETPRHQPAADLKEKMESFEKYVIENVLRKHGHNISKAAQELGISRQSLQYRLKKFSHSSNE"}},
  "key": {"[1]": {"target": "truncated RocR (RocR^trunc, central domain) (Bacillus subtilis, UniProt P38022)", "settings": "15 mM ATP, 15 mM MgCl2, pH 7.5, room temperature, no effector"}, "RocB": {"target": "T1, RocB (Bacillus subtilis, UniProt P39635)", "T1 sequence (P39635 1-566)": "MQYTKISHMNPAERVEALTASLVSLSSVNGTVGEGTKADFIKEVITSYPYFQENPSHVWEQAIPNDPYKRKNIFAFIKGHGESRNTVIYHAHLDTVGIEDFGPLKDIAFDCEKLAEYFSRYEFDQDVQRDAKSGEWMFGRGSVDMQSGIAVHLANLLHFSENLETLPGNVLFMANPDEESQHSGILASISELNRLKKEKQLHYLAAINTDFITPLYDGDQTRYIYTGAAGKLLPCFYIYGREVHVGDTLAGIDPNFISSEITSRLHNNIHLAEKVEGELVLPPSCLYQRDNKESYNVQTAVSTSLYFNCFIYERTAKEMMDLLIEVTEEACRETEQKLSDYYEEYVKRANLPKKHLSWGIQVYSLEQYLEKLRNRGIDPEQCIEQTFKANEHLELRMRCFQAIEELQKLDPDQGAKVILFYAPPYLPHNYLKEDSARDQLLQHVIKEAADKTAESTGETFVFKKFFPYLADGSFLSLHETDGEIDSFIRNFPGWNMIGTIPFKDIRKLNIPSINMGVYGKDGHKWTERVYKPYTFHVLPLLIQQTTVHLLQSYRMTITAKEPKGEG", "assay": "coupled RocB-RocD assay, P5C-o-aminobenzaldehyde complex at […] nm", "assay_type": "biochemical", "settings": "2 mM MnCl2, PBS, 25 °C, 1 µM RocD, 10 mM 2-oxoglutarate, 80 µM PLP"}, "dynamic light scattering": {"target": "the molecule itself", "assay": "dynamic light scattering"}},
  "data": [
    {"molecule": "Nc1ncnc2c1ncn2[C@@H]1O[C@H](COP(=O)(O)OP(=O)(O)OP(=O)(O)O)[C@@H](O)[C@H]1O", "note": "[ATP]", "values": [
      {"measurement": "kobs", "setting": "[1]", "result": "the truncated protein was active irrespective of the presence of potential effector molecules"}
    ]},
    {"molecule": "NC(=O)NCCC[C@H](N)C(=O)O", "note": "[citrulline]", "values": [
      {"measurement": "KM", "setting": "RocB", "result": 7.355, "unit": "mM l^-1"}
    ]},
    {"molecule": "B1", "values": [
      {"measurement": "stoichiometry N", "setting": "dynamic light scattering", "result": "~2"}
    ]}
  ]
}
